Measured values from ChEMBL document CHEMBL1159053, “Synthesis and antifungal activities in vitro of novel pyrazino [2,1-a] isoquinolin derivatives” (2010).
≈ marks a conversion by molar mass, not a printed value.

How the values were obtained:
Assay type in all cases: functional
Candida albicans = test: Antifungal activity against Candida albicans by serial dilution method
Cryptococcus neoformans = test: Antifungal activity against Cryptococcus neoformans by serial dilution method
Nannizzia gypsea = test: Antifungal activity against Microsporum gypseum by serial dilution method
Aspergillus fumigatus = test: Antifungal activity against Aspergillus fumigatus by serial dilution method
Trichophyton rubrum = test: Antifungal activity against Trichophyton rubrum by serial dilution method

SMILES: CCCCCCCCCCN1CCc2cc(O)c(O)cc2C1
- MIC80 (Candida albicans): 64 µg/mL (≈ 210 µM)
- MIC80 (Cryptococcus neoformans): 16 µg/mL (≈ 52.4 µM)
- MIC80 (Nannizzia gypsea): 16 µg/mL (≈ 52.4 µM)
- MIC80 (Aspergillus fumigatus): 64 µg/mL (≈ 210 µM)
- MIC80 (Trichophyton rubrum): 32 µg/mL (≈ 105 µM)

SMILES: CCCCN1CCN2CCc3ccc(F)cc3C2C1 (stereo not given)
- MIC80 (Candida albicans): 64 µg/mL (≈ 244 µM)
- MIC80 (Cryptococcus neoformans): > 64 µg/mL
- MIC80 (Nannizzia gypsea): 4 µg/mL (≈ 15.2 µM)
- MIC80 (Aspergillus fumigatus): > 64 µg/mL
- MIC80 (Trichophyton rubrum): > 64 µg/mL

SMILES: CCCCCCCCN1CC(=O)N2CCc3ccc(F)cc3C2C1 (stereo not given)
- MIC80 (Candida albicans): > 64 µg/mL
- MIC80 (Cryptococcus neoformans): 16 µg/mL (≈ 48.1 µM)
- MIC80 (Nannizzia gypsea): 16 µg/mL (≈ 48.1 µM)
- MIC80 (Aspergillus fumigatus): 32 µg/mL (≈ 96.3 µM)
- MIC80 (Trichophyton rubrum): 16 µg/mL (≈ 48.1 µM)

SMILES: CCCCN1CC(=O)N2CCc3cc(OC)c(OC)cc3C2C1 (stereo not given)
- MIC80 (Candida albicans): > 64 µg/mL
- MIC80 (Cryptococcus neoformans): 16 µg/mL (≈ 50.2 µM)
- MIC80 (Nannizzia gypsea): > 64 µg/mL
- MIC80 (Aspergillus fumigatus): > 64 µg/mL
- MIC80 (Trichophyton rubrum): > 64 µg/mL

SMILES: CCCCN1CC(=O)N2CCc3ccc(F)cc3C2C1 (stereo not given)
- MIC80 (Candida albicans): > 64 µg/mL
- MIC80 (Cryptococcus neoformans): 32 µg/mL (≈ 116 µM)
- MIC80 (Nannizzia gypsea): > 64 µg/mL
- MIC80 (Aspergillus fumigatus): > 64 µg/mL
- MIC80 (Trichophyton rubrum): 64 µg/mL (≈ 232 µM)

SMILES: CCCCCCCCN1CCN2CCc3cc(O)c(O)cc3C2C1 (stereo not given)
- MIC80 (Candida albicans): 16 µg/mL (≈ 48.1 µM)
- MIC80 (Cryptococcus neoformans): 2 µg/mL (≈ 6.02 µM)
- MIC80 (Nannizzia gypsea): 32 µg/mL (≈ 96.2 µM)
- MIC80 (Aspergillus fumigatus): 64 µg/mL (≈ 192 µM)
- MIC80 (Trichophyton rubrum): 16 µg/mL (≈ 48.1 µM)

SMILES: CCCCCCCCCN1CC(=O)N2CCc3cc(OC)c(OC)cc3C2C1 (stereo not given)
- MIC80 (Candida albicans): 64 µg/mL (≈ 165 µM)
- MIC80 (Cryptococcus neoformans): 4 µg/mL (≈ 10.3 µM)
- MIC80 (Nannizzia gypsea): 2 µg/mL (≈ 5.15 µM)
- MIC80 (Aspergillus fumigatus): 32 µg/mL (≈ 82.4 µM)
- MIC80 (Trichophyton rubrum): 32 µg/mL (≈ 82.4 µM)

SMILES: CCCCCCCCN1CCN2CCc3cc(OC)c(OC)cc3C2C1 (stereo not given)
- MIC80 (Candida albicans): 32 µg/mL (≈ 88.8 µM)
- MIC80 (Cryptococcus neoformans): 8 µg/mL (≈ 22.2 µM)
- MIC80 (Nannizzia gypsea): 4 µg/mL (≈ 11.1 µM)
- MIC80 (Aspergillus fumigatus): 8 µg/mL (≈ 22.2 µM)
- MIC80 (Trichophyton rubrum): 16 µg/mL (≈ 44.4 µM)

SMILES: CCCCCCCCN1CCN2CCc3ccc(F)cc3C2C1 (stereo not given)
- MIC80 (Candida albicans): 16 µg/mL (≈ 50.2 µM)
- MIC80 (Cryptococcus neoformans): 4 µg/mL (≈ 12.6 µM)
- MIC80 (Nannizzia gypsea): 4 µg/mL (≈ 12.6 µM)
- MIC80 (Aspergillus fumigatus): 32 µg/mL (≈ 100 µM)
- MIC80 (Trichophyton rubrum): 8 µg/mL (≈ 25.1 µM)

SMILES: CCCCCCCCCN1CCN2CCc3cc(O)c(O)cc3C2C1 (stereo not given)
- MIC80 (Candida albicans): 8 µg/mL (≈ 23.1 µM)
- MIC80 (Cryptococcus neoformans): 4 µg/mL (≈ 11.5 µM)
- MIC80 (Nannizzia gypsea): 8 µg/mL (≈ 23.1 µM)
- MIC80 (Aspergillus fumigatus): 64 µg/mL (≈ 185 µM)
- MIC80 (Trichophyton rubrum): 8 µg/mL (≈ 23.1 µM)

SMILES: CCCCCCCCCCCCN1CC(=O)N2CCc3cc(OC)c(OC)cc3C2C1 (stereo not given)
- MIC80 (Candida albicans): > 64 µg/mL
- MIC80 (Cryptococcus neoformans): 32 µg/mL (≈ 74.3 µM)
- MIC80 (Nannizzia gypsea): 64 µg/mL (≈ 149 µM)
- MIC80 (Aspergillus fumigatus): > 64 µg/mL
- MIC80 (Trichophyton rubrum): > 64 µg/mL

SMILES: CCCCN1CCN2CCc3cc(O)c(O)cc3C2C1 (stereo not given)
- MIC80 (Candida albicans): > 64 µg/mL
- MIC80 (Cryptococcus neoformans): 4 µg/mL (≈ 14.5 µM)
- MIC80 (Nannizzia gypsea): > 64 µg/mL
- MIC80 (Aspergillus fumigatus): > 64 µg/mL
- MIC80 (Trichophyton rubrum): > 64 µg/mL

SMILES: CCCCCCCCN1CC(=O)N2CCc3cc(OC)c(OC)cc3C2C1 (stereo not given)
- MIC80 (Candida albicans): 16 µg/mL (≈ 42.7 µM)
- MIC80 (Cryptococcus neoformans): 8 µg/mL (≈ 21.4 µM)
- MIC80 (Nannizzia gypsea): 8 µg/mL (≈ 21.4 µM)
- MIC80 (Aspergillus fumigatus): 64 µg/mL (≈ 171 µM)
- MIC80 (Trichophyton rubrum): 32 µg/mL (≈ 85.4 µM)

SMILES: CCCCCCCCCN1CC(=O)N2CCc3ccc(F)cc3C2C1 (stereo not given)
- MIC80 (Candida albicans): 32 µg/mL (≈ 92.4 µM)
- MIC80 (Cryptococcus neoformans): 2 µg/mL (≈ 5.77 µM)
- MIC80 (Nannizzia gypsea): 0.5 µg/mL (≈ 1.44 µM)
- MIC80 (Aspergillus fumigatus): 16 µg/mL (≈ 46.2 µM)
- MIC80 (Trichophyton rubrum): 4 µg/mL (≈ 11.5 µM)

SMILES: CCCCCCCCCN1CCN2CCc3cc(OC)c(OC)cc3C2C1 (stereo not given)
- MIC80 (Candida albicans): 32 µg/mL (≈ 85.4 µM)
- MIC80 (Cryptococcus neoformans): 4 µg/mL (≈ 10.7 µM)
- MIC80 (Nannizzia gypsea): 2 µg/mL (≈ 5.34 µM)
- MIC80 (Aspergillus fumigatus): 8 µg/mL (≈ 21.4 µM)
- MIC80 (Trichophyton rubrum): 8 µg/mL (≈ 21.4 µM)

SMILES: CCCCCCCCCN1CCN2CCc3ccc(F)cc3C2C1 (stereo not given)
- MIC80 (Candida albicans): 8 µg/mL (≈ 24.1 µM)
- MIC80 (Cryptococcus neoformans): 4 µg/mL (≈ 12 µM)
- MIC80 (Nannizzia gypsea): 2 µg/mL (≈ 6.01 µM)
- MIC80 (Aspergillus fumigatus): 16 µg/mL (≈ 48.1 µM)
- MIC80 (Trichophyton rubrum): 8 µg/mL (≈ 24.1 µM)

SMILES: CCCCCCCCCCCCN1CCN2CCc3cc(OC)c(OC)cc3C2C1 (stereo not given)
- MIC80 (Candida albicans): > 64 µg/mL
- MIC80 (Cryptococcus neoformans): 16 µg/mL (≈ 38.4 µM)
- MIC80 (Nannizzia gypsea): 32 µg/mL (≈ 76.8 µM)
- MIC80 (Aspergillus fumigatus): > 64 µg/mL
- MIC80 (Trichophyton rubrum): > 64 µg/mL

SMILES: CCCCCCCCCCCCN1CCN2CCc3ccc(F)cc3C2C1 (stereo not given)
- MIC80 (Candida albicans): > 64 µg/mL
- MIC80 (Cryptococcus neoformans): 64 µg/mL (≈ 171 µM)
- MIC80 (Nannizzia gypsea): 4 µg/mL (≈ 10.7 µM)
- MIC80 (Aspergillus fumigatus): > 64 µg/mL
- MIC80 (Trichophyton rubrum): 64 µg/mL (≈ 171 µM)

SMILES: CCCCCCCCCCCCN1CC(=O)N2CCc3ccc(F)cc3C2C1 (stereo not given)
- MIC80 (Candida albicans): > 64 µg/mL
- MIC80 (Cryptococcus neoformans): > 64 µg/mL
- MIC80 (Nannizzia gypsea): 64 µg/mL (≈ 165 µM)
- MIC80 (Aspergillus fumigatus): 32 µg/mL (≈ 82.4 µM)
- MIC80 (Trichophyton rubrum): 64 µg/mL (≈ 165 µM)

SMILES: CCCCCCCCCCCCN1CCN2CCc3cc(O)c(O)cc3C2C1 (stereo not given)
- MIC80 (Candida albicans): 64 µg/mL (≈ 165 µM)
- MIC80 (Cryptococcus neoformans): 16 µg/mL (≈ 41.2 µM)
- MIC80 (Nannizzia gypsea): 16 µg/mL (≈ 41.2 µM)
- MIC80 (Aspergillus fumigatus): 64 µg/mL (≈ 165 µM)
- MIC80 (Trichophyton rubrum): 16 µg/mL (≈ 41.2 µM)

SMILES: CCCCN1CCN2CCc3cc(OC)c(OC)cc3C2C1 (stereo not given)
- MIC80 (Candida albicans): > 64 µg/mL
- MIC80 (Cryptococcus neoformans): > 64 µg/mL
- MIC80 (Nannizzia gypsea): > 64 µg/mL
- MIC80 (Aspergillus fumigatus): > 64 µg/mL
- MIC80 (Trichophyton rubrum): > 64 µg/mL

SMILES: OC(Cn1cncn1)(Cn1cncn1)c1ccc(F)cc1F [FLUCONAZOLE]
- MIC80 (Candida albicans): 2 µg/mL (≈ 6.53 µM)
- MIC80 (Cryptococcus neoformans): 4 µg/mL (≈ 13.1 µM)
- MIC80 (Nannizzia gypsea): 2 µg/mL (≈ 6.53 µM)
- MIC80 (Aspergillus fumigatus): > 64 µg/mL
- MIC80 (Trichophyton rubrum): 32 µg/mL (≈ 104 µM)
